Results as given in article PMC7810238, “Design, synthesis, and evaluation of Bothrops venom serine protease peptidic inhibitors” (The Journal of Venomous Animals and Toxins Including …, 2021).
Where no end group is shown, it is not given here. [ ]: non-standard residue; d: D form.

Legend:
Bothrops spp venom SVSPs = conditions: ref [9]; cited from earlier work
Method: In this context, the use of selective SVSPs inhibitory compounds, in association with available commercial antivenoms, could be a starting point for studies aiming snakebite treatment efficacy improvement. Therefore, in the present study, small peptides were evaluated as potential SVSPs inhibitors.

batroxobin = batroxobin thrombin-like activity, chromogenic substrate S-2238; type: biochemical, B. moojeni; conditions: for inhibition of batroxobin activity: peptide 60 µg/mL, absorbance 405 nm
Method: (§1) Batroxobin and human thrombin activities were evaluated using the chromogenic substrate S-2238 (Chromogenix). Briefly, batroxobin (0.8 U) or human thrombin (0.8U) was pre-incubated at 37°C for 10 minutes with different concentrations (0 to 1 mg/mL for batroxobin, and 60 µg/mL, for human thrombin), of each peptide in Tris/HCl buffer […], containing CaCl2 0.02% (v/v), pH 8.0. Enzymatic reaction was initiated by addition of substrate (200µM), followed by incubation at 37°C, for 20 minutes. When serine protease activity from BjV was evaluated using the chromogenic substrate S2238, 5 µg of BjV and 60 µg/mL of each peptide were employed.
(§2) For all assays using chromogenic substrates, hydrolysis was quantified by evaluation of absorbance at 405 nm, in a spectrophotometer SpectraMax® Paradigm® Multi-Mode reader from Molecular Devices (Sunnyvale, CA).
(§3) SVSPs activity from BjV was also evaluated using the fluorogenic substrate Abz-Ser. Briefly, BjV (5 µg/100µL) was pre-incubated at 37 °C for 10 minutes with 100 µg/mL of each peptide, in PBS pH 7.4 containing 20mM NaCl. Enzymatic reaction was initiated by addition of substrate (10 µM), followed by incubation at 37°C, for 20 minutes. The substrate hydrolysis was monitored following fluorescence emitted at 420 nm, under excitation at 320 nm in a spectrofluorimeter (Victor 3^TM Perkin- Elmer, Boston, MA, USA), as described by Araujo et al. (2000). All the experiments were made in triplicate.
(§4) Figure 2. Evaluation of the effects of synthetic peptides on batroxobin and on human serine proteases activities. (A) Batroxobin activity was evaluated after 20 min, at 37 °C, using the chromogenic substrate S-2238 and the indicated concentrations of synthetic peptides. (B, C, D) Commercial hSPs had their activity evaluated after 20 min, at 37 °C, using their specific chromogenic substrates and batroxobin inhibitory peptides at 60 µg/mL.

human thrombin = human thrombin activity, chromogenic substrate S-2238; type: biochemical; conditions: peptide 60 µg/mL; human thrombin 0.8U; pre-incubated 10 min 37°C, Tris/HCl 0.15mM, CaCl2 0.02%, pH 8.0; S-2238 200 µM, 20 min 37°C; 405 nm; triplicate
Method: as §1, §2
as §3, with “All the experiments were made in triplicate.” left out

human trypsin = experiment: proteolytic activity of human trypsin, chromogenic substrate BAPNA; type: biochemical; conditions: peptide 60 µg/mL; trypsin 126 nM; pre-incubated 10 min 37°C, Tris/HCl 50 mM, CaCl2 0.02%, pH 8.0; BAPNA 1.25 mM, 20 min 37°C; 405 nm; triplicate
Method: Proteolytic activity of human trypsin was evaluated using the chromogenic substrate BAPNA (Sigma). Briefly, trypsin (126 nM) was pre-incubated for 10 minutes at 37°C with 60 µg/mL of each peptide in Tris/HCl buffer 50 mM containing CaCl2 0.02% (v/v), pH 8.0. Enzymatic reaction was initiated by addition of substrate (1.25 mM), followed by incubation at 37°C, for 20 minutes.
as §2
as §3, with “Enzymatic reaction was initiated by addition of substrate (10 µM), followed by incubation at 37°C, for 20 minutes.” left out, “All the experiments were made in triplicate.” left out
as §4, with “Evaluation of the effects of synthetic peptides on batroxobin and on human serine proteases activities.” left out

human factor Xa = experiment: proteolytic activity of human factor Xa, chromogenic substrate CS-11(22); type: biochemical; conditions: peptide 60 µg/mL; factor Xa 20nM; pre-incubated 10 min 37°C, Tris/HCl 20 mM, NaCl 150 mM, pH 7.4; CS-11(22) 100µM, 20 min 37°C; 405 nm; triplicate
Method: Proteolytic activity of human factor Xa was evaluated using the chromogenic substrate CS-11(22) (Hyphen). Briefly, factor Xa (20nM) was pre-incubated for 10 minutes at 37°C with 60 µg/mL of each peptide in Tris/HCl buffer 20 mM, pH 7.4 containing NaCl 150 mM. Enzymatic reaction was initiated by the addition of substrate (100µM), followed by incubation at 37°C, for 20 minutes.
as §2
as §3, with “Enzymatic reaction was initiated by addition of substrate (10 µM), followed by incubation at 37°C, for 20 minutes.” left out, “All the experiments were made in triplicate.” left out
as §4, with “Evaluation of the effects of synthetic peptides on batroxobin and on human serine proteases activities.” left out

[1] = tested on: Bothrops jararaca venom (BjV) serine proteases; experiment: BjV serine protease (thrombin-like) activity, chromogenic substrate S2238; type: biochemical; conditions: BjV 5 µg, peptide 60 µg/mL or 100 µg/mL, S2238 200 µM or 2 mM, 20 min 37°C, 405 nm, triplicate
Method: as §1, §2
as §3, with “All the experiments were made in triplicate.” left out

[2] = tested on: Bothrops jararaca venom (BjV) SVSPs; experiment: BjV SVSPs activity, fluorogenic substrate Abz-Ser; type: biochemical; conditions: peptide 100 µg/mL; for inhibition of BjV serine protease activity on Abz-Ser: substrate Abz-Ser 10 µM, BjV 5 µg/100µL, pre-incubated 10 min 37°C, PBS pH 7.4, 20mM NaCl, 20 min 37°C, fluorescence 420 nm (ex 320 nm), triplicate
Method: as §3
Figure 3. Evaluation of synthetic peptides on Bothrops venom serine-proteases. BjV was pre-incubated with 100 µg/mL of pepB or pepC and a serine proteases activity was evaluated after 20 min, at 37 °C, with (A) 2 mM of substrate S2238 or (B) 10 µM of substrate Abz-Ser.

[3] = batroxobin 0.8 U, pre-incubated 10 min 37°C, Tris/HCl 0.15mM, CaCl2 0.02%, pH 8.0, S-2238 200 µM, 20 min 37°C, triplicate

Substance | selectivity as substrate for Bothrops spp venom SVSPs (Bothrops spp venom SVSPs) | inhibition of batroxobin activity (in words) (batroxobin; tested until 1 mg/mL, batroxobin 0.8 U, pre-incubated 10 min 37°C, Tris/HCl 0.15mM, CaCl2 0.02%, pH 8.0, S-2238 200 µM, 20 min 37°C, triplicate) | effect on catalytic activity of human thrombin (human thrombin) | inhibition of batroxobin activity (batroxobin; [3]) [%] | effect on catalytic activity of human trypsin (human trypsin) | effect on catalytic activity of human factor Xa (human factor Xa) | inhibition of BjV thrombin-like activity [1] [%] | inhibition of BjV serine protease activity on Abz-Ser [2] [%] | efficiency on batroxobin relative to pepC (batroxobin; pepB compared with pepC) | inhibitory effect of pepB relative to pepC on BjV with Abz-Ser ([2]; pepB compared with pepC) [times less efficient]
Abz-RPPGFSPFRQ-EDDnp [Abz-Ser] | selective for Bothrops spp venom SVSPs |  |  |  |  |  |  |  |  | 
PFYQAS [pepA, 6-mer peptide designed based on carboxyl-terminus of the substrate Abz-Ser] |  | did not inhibit batroxobin activity |  |  |  |  |  |  |  | 
PFYQSS [pepC, 6-mer peptide related to pepA, a Ser instead of Ala] |  |  | none of the peptides inhibited human serine proteases | 18 ± 4 | none of the peptides inhibited human serine proteases | none of the peptides inhibited human serine proteases | 18 ± 2 | 19.3 ± 0.7 |  | 
PF[dR]QAS [pepB, 6-mer peptide related to pepA, D-Arg replacing Tyr] |  |  | none of the peptides inhibited human serine proteases | 36 ± 7 | none of the peptides inhibited human serine proteases | none of the peptides inhibited human serine proteases | 15 ± 3 | 5.4 ± 0.7 | twice more efficient than pepC | 4
